We go through two molecules from US10669242B2 (priority 2016, dated 2020).

Usually IC50 stands for the concentration at which inhibition is half-maximal.

Each structure is given as a SMILES string. Entries after “also recorded” stand apart in the source; their conditions may differ.

Assay [1] has as its target T1, recombinant glucosyltransferase domain of C. difficile Toxin B/TcdB (Clostridioides difficile, UniProt P18177).
T1 construct: 6-His (C); purchased R&D Systems 6246-GT
As to the kind of experiment: biochemical.

In assay [2] the test system is C. difficile toxin (TcdA and TcdB, ~1:1). Briefly: Murine C. difficile toxin model (intrarectal toxin). The assay is classed as in vivo, C57BL/6 mice. The note with it: for IL-1β (% Inhibition) / MPO (% Inhibition): murine C. difficile toxin model, PO, 50 mg/kg body weight.
Assay [3] deals with T2, C. difficile full-length toxin TcdA (Clostridioides difficile, UniProt P16154).
T2 construct: C. difficile full-length toxins (TcdA or TcdB); purchased Enzo Life Sciences BML-G140-0050
Briefly: cell-based.

For assay [4], the target named is T3, C. difficile full-length toxin TcdB (Clostridioides difficile, UniProt P18177).
T3 construct: C. difficile full-length toxins (TcdA or TcdB); purchased EMD Millipore 616377
As to the kind of experiment: cell-based.

Assay [5] concerns C. difficile. The class given is in vivo, C57/BL6 mice. The note with it: relapse model; for weight loss, days 8-9 after infection: PO, vancomycin 20 mg/kg once per day for five days.
Setting [6] is: intraperitoneal (IP), 50 mg/kg, intrarectal toxin 12.5 μg.
Setting [7] is: intrarectal (IR) co-administration with toxin (12.5 μg), 25 mg/kg, ~12.5 mg/kg, 4 hours.
Where [8] appears, read: oral (PO), 50 mg/kg, intrarectal toxin 12.5 μg.

T1 sequence (P18177 1-543): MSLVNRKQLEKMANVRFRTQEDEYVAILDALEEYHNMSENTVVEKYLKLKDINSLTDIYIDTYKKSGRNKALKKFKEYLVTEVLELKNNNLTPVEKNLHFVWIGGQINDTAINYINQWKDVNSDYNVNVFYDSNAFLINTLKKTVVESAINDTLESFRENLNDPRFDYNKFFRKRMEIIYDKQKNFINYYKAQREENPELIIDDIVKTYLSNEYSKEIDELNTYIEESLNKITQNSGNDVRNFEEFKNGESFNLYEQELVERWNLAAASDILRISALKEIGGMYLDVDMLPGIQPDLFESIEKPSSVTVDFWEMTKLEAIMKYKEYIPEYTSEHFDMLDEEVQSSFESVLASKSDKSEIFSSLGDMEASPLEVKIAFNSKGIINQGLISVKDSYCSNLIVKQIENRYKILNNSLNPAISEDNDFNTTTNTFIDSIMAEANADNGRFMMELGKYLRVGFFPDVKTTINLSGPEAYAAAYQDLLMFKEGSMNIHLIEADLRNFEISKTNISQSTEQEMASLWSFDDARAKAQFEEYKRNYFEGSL
T2 sequence (P16154 whole entry, looked up): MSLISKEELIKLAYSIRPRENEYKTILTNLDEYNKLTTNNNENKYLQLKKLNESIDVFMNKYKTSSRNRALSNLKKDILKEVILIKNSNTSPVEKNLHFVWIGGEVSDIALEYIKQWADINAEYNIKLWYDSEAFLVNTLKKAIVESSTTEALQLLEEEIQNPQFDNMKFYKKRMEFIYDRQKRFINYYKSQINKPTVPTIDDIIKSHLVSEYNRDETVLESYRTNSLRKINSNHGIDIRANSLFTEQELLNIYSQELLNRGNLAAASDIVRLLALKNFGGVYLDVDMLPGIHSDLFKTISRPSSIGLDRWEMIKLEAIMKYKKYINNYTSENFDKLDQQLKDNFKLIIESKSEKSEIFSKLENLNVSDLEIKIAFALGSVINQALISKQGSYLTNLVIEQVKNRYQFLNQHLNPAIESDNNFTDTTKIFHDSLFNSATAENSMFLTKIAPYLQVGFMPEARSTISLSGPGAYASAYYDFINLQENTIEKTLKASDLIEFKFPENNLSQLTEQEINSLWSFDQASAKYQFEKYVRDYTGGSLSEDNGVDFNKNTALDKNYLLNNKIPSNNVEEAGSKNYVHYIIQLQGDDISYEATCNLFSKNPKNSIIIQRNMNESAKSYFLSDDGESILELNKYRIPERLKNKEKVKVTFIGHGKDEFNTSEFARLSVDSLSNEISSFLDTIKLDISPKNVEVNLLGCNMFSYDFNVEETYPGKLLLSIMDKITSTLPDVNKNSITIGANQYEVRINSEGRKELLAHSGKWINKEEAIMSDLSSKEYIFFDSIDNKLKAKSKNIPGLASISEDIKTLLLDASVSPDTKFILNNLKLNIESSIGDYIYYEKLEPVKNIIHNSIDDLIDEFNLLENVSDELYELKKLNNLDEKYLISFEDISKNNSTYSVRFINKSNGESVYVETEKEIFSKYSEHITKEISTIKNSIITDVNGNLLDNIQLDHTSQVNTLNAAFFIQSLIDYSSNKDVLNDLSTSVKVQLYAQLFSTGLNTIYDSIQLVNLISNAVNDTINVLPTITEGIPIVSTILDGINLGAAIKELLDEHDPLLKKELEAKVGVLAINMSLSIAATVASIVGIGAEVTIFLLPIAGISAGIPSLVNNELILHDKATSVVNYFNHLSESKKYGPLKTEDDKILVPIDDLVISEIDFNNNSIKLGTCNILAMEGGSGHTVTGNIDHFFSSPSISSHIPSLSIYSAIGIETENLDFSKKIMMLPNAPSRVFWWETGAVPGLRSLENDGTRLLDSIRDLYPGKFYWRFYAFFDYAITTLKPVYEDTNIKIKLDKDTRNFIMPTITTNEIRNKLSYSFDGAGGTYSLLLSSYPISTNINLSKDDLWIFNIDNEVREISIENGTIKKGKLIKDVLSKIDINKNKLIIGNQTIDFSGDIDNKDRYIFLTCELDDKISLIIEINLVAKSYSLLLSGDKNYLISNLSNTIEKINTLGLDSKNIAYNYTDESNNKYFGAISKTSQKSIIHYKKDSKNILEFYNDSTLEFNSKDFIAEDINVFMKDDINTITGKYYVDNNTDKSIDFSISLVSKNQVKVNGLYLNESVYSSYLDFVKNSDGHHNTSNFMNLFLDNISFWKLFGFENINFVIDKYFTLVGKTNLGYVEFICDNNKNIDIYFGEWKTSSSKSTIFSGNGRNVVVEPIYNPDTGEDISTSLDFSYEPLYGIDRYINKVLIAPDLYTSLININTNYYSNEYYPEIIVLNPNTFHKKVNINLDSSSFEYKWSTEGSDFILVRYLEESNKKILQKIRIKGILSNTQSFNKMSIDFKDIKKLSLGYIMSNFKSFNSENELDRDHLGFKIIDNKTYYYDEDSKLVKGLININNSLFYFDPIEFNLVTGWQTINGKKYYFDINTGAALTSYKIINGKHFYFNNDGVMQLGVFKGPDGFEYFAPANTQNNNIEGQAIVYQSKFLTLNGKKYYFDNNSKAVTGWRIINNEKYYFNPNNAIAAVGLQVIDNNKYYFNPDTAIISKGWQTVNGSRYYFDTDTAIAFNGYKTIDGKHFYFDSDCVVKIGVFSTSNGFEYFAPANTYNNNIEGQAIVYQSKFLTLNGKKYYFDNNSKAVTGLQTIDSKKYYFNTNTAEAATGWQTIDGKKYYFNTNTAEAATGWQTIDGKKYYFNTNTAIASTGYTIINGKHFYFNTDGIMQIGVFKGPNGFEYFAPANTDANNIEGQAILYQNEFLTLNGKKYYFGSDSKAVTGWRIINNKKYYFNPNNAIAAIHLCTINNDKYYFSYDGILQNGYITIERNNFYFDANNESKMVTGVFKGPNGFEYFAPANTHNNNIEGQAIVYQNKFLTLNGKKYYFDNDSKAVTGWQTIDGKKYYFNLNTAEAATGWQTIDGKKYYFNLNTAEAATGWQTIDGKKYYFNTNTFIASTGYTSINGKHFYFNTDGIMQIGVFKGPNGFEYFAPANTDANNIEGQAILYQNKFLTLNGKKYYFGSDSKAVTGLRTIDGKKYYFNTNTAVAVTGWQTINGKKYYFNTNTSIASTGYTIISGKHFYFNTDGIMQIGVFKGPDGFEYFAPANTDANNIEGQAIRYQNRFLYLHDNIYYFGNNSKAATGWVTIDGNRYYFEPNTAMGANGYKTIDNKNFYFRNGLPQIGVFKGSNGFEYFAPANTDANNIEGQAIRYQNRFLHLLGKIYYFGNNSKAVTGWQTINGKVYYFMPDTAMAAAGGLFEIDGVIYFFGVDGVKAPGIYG

`COc1ccc(NC(=O)c2ccc(CN3C(=O)c4ccc(Cl)cc4NC(=O)[C@H]3Cc3ccccn3)cc2F)nc1` [Example 6a, (R)-4-((8-Chloro-2,5-dioxo-3-(pyridin-2-ylmethyl)-2,3-dihydro-1H-benzo[e][1,4]diazepin-4(5H)-yl)methyl)-2-fluoro-N-(5-methoxypyridin-2-yl)benzamide]: the concentration for half-maximal inhibition (IC50) in assay [1] is below 100 nM. Further, in assay [2] (setting [6]), the “IL-1β in colon tissue” value is listed as “decreased the C. difficile toxin-induced IL-1β; also recorded: reduced the concentrations of IL-1β”, the “MPO in colon tissue” value is “decreased; also recorded: reduced” and the “toxin effect on colon length” value is listed as “reduced the C. difficile toxin-mediated effects on colon length; also recorded: effective in reducing the C. difficile toxin effects on colon length”. In assay [2] (setting [7]), the “toxin effect on colon length” value was “reduced the C. difficile toxin-mediated effects on colon length”, the “toxin-induced IL-1β in colon tissue” value is on record as “decreased the C. difficile toxin-induced IL-1β” and the “toxin-induced MPO in colon tissue” value is “decreased”. In addition, in assay [2], the “IL-1β (% Inhibition)” value is given as 80% and the “MPO (% Inhibition)” value is recorded as 81%. In addition, in assay [2] (setting [8]), the “IL-1β in colon tissue” value is “decreased the C. difficile toxin-induced IL-1β; also recorded: reduced the levels of IL-1β; also recorded: reduced the concentrations of IL-1β”, the “MPO in colon tissue” value was “decreased; also recorded: reduced” and the “toxin effect on colon length” value is reported as “reduced the C. difficile toxin-mediated effects on colon length; also recorded: effective in reducing the C. difficile toxin effects on colon length”. In addition, in assay [2] (oral (PO), intrarectal toxin 12.5 μg), the colon histopathology entry is recorded as “prevention of tissue damage; also recorded: improved the colon histopathology”. Also, the IC50 in assay [3] lay in the range of 100 to 999 nM. This molecule registered an IC50 in assay [4] below 100 nM. For the same molecule, in assay [5] (8 mice per group), the “mice that died/expired on Days 8-9” value is recorded as “none” and the relapsing disease entry is reported as “prevention of relapsing disease”. Further, the “weight loss, days 8-9 after infection” value in assay [5] is “significantly reduced weight loss 8.0, 8.5 and 9.0 days after infection”.

Take `O=C(Nc1ccc(C(F)(F)F)cn1)c1ccc(CN2C(=O)c3ccc(Cl)cc3NC(=O)[C@H]2Cc2ccccn2)cc1Cl` [Example 5ae, (R)-2-Chloro-4-((8-chloro-2,5-dioxo-3-(pyridin-2-ylmethyl)-2,3-dihydro-1H-benzo[e][1,4]diazepin-4(5H)-yl)methyl)-N-(5-(trifluoromethyl)pyridin-2-yl)benzamide]: the IC50 in assay [1] is below 100 nM. Further, in assay [2], the “IL-1β (% Inhibition)” value is 81% and the “MPO (% Inhibition)” value was 79%. In addition, in assay [2] (setting [8]), the “IL-1β in colon tissue” value was “reduced the levels of IL-1β”, the “MPO in colon tissue” value is on record as “reduced” and the “toxin effect on colon length” value is “reduced the C. difficile toxin-mediated effects on colon length”. For the same molecule, the 50% inhibitory concentration (IC50) in assay [3] lay in the range of 1000 to 10000 nM. Also, in assay [4], the IC50 lay in the range of 100 to 999 nM. Besides, in assay [5] (8 mice per group), the “mice that died/expired on Days 8-9” value is “none” and the relapsing disease entry is recorded as “prevention of relapsing disease”. Moreover, the “mice euthanized due to body weight loss of >20%” value in assay [5] (Day 4, 8 mice per group) turned out to be 1. In addition, in assay [5], the “weight loss, days 8-9 after infection” value was “significantly reduced weight loss 8.0, 8.5 and 9.0 days after infection”.
